Earlier results on 2 compounds are cited in patent US6814987B2, “Compositions and methods of use for extracts of magnoliaceae plants” (NPI, LLC., priority 2000, dated 2004).

Read-outs that look alike come from different tables or passages of the source. Where only a bound is given, the exact number is not on record here.

For the compound `C=CCc1ccc(O)c(-c2ccc(O)c(CC=C)c2)c1` [honokiol], the “duration of muscle relaxing effect” value (250 mg/kg) is 3 h. For the same compound, where the note is “500 mg/kg”, the observed effect entry is listed as “loss of righting reflex”.
For `C=CCc1ccc(O)c(-c2cc(CC=C)ccc2O)c1` [magnolol], in the series with mice (63 mg/kg intraperitoneally), the observed effects result is “hypomotility, ptosis, and sedation”. Moreover, in the series with mice (125 mg/kg), the “duration of effects after injection” value is 2 h; the observed effects entry was “sedation, ataxia, and prominent muscle relaxation”. For the same compound, in the series on mice (250 mg/kg), the “duration of muscle relaxation” value is on record as “over 3 hr”, the time to ataxia was at most 10 min and the “time to loss of righting reflex” value is 40 min.
